The values below come from article PMC13342644, “Structural basis for transport and inhibition of nucleotide sugar transport in pathogenic fungi” (Nature Communications, 2026).

In one test the test system is Vrg4 liposomes. The class given is biochemical. The following applies: liposome assays, GDP-mannose versus GMP as antiport substrate.
The test system of test [1] is NDY5 yeast containing an empty yEP181 vector. Description: Hygromycin B-based in vivo viability (growth) assay. The class given is cell-based, Saccharomyces cerevisiae. The method, then:
The yeast was grown in minimal media to select for the plasmids, and the expression of the nanobody was induced with galactose. After overnight galactose induction, the yeast culture was diluted, and growth was monitored over 30 h.
An overnight culture was grown in minus -Leu-Ura medium containing 2% glucose and then diluted 1:10 into medium containing 2% lactate. After 9 h of growth, 2% galactose was added, and the cultures were left overnight. […] The cultures were grown at 30 °C with shaking, and growth was monitored over the next 30 h by measuring the OD.

The structures appear in SMILES notation.

Turning to `Nc1nc2c(ncn2[C@@H]2O[C@H](COP(=O)(O)OP(=O)(O)O[C@H]3O[C@H](CO)[C@@H](O)[C@H](O)[C@@H]3O)[C@@H](O)[C@H]2O)c(=O)[nH]1` [GDP-mannose], the “Transport rate as antiport substrate, in words” value with Vrg4 liposomes was “faster transport rates and greater overall uptake”.

On to `CN[C@H]1C[C@@H](N)[C@H](O)[C@@H](O[C@@H]2O[C@H](CO)[C@H](O)[C@@H]3OC4(O[C@H]23)O[C@H]([C@@H](N)CO)[C@H](O)[C@H](O)[C@H]4O)[C@@H]1O` (some centres unmarked) [hygromycin B], for which the “Growth / sensitivity to hygromycin B, in words” value in test [1] was “sensitive”.
